Test results: ChEMBL document CHEMBL1821607, “N-Arylalkyl-2-azaadamantanes as cage-expanded polycarbocyclic sigma (σ) receptor ligands” (Bioorg Med Chem Lett, 2011)

Key:
[1] = molecular target: Sigma non-opioid intracellular receptor 1 (Cavia porcellus, UniProt Q60492); test: Displacement of [3H](+)-pentazocine from sigma 1 receptor in guinea pig brain homogenates after 90 mins by scintillation counting; assay type: tissue-based
[2] = Displacement of [3H]DTG from sigma 2 receptor in rat liver homogenates in presence of sigma-1 receptor blocker (+)-pentazocine after 120 mins by liquid scintillation counting; assay type: tissue-based
[3] = Selectivity ratio of Ki for sigma 2 receptor in rat liver to Ki for sigma 1 receptor in guinea pig brain
[4] = Selectivity ratio of Ki for sigma 1 receptor in guinea pig brain to Ki for sigma 2 receptor in rat liver

Sigma non-opioid intracellular receptor 1, sequence (Q60492 whole entry): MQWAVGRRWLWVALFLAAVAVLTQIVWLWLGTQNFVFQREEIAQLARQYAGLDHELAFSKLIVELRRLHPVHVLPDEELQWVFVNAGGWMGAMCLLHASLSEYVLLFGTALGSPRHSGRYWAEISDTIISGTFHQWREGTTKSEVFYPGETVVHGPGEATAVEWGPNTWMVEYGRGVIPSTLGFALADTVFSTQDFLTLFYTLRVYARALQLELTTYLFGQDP

COc1ccc(CN2C3CC4CC(C3)CC2C4)cc1
Ki [1]: 12.4 nM | Ki [2]: 54 nM | Ratio Ki [3]: 4.4

COc1ccc(CN2C3CC4CC(C3)CC2(O)C4)cc1 (racemic)
Ki [1]: 1240 nM | Ratio Ki [4]: 2.9 | Ki [2]: 426 nM

COc1cccc(CN2C3CC4CC(C3)CC2(O)C4)c1 (racemic)
Ki [1]: 1950 nM | Ratio Ki [4]: 5.5 | Ki [2]: 353 nM

OC12CC3CC(CC(C3)N1Cc1ccc(F)cc1)C2 (racemic)
Ki [1]: 650 nM | Ki [2]: 826 nM | Ratio Ki [3]: 1.3

Fc1ccc(CCN2C3CC4CC(C3)CC2C4)cc1
Ki [1]: 12.8 nM | Ki [2]: 34 nM | Ratio Ki [3]: 2.7

Fc1cccc(CCN2C3CC4CC(C3)CC2C4)c1
Ki [1]: 8.3 nM | Ki [2]: 40 nM | Ratio Ki [3]: 4.8

Fc1ccc(CN2C3CC4CC(C3)CC2C4)cc1
Ki [1]: 12 nM | Ki [2]: 90 nM | Ratio Ki [3]: 7.5

OC12CC3CC(CC(C3)N1CCc1ccc(F)cc1)C2 (racemic)
Ki [1]: 246 nM | Ratio Ki [4]: 1.2 | Ki [2]: 201 nM

COc1cccc(CN2C3CC4CC(C3)CC2C4)c1
Ki [1]: 239 nM | Ratio Ki [4]: 3.7 | Ki [2]: 64 nM

OC12CC3CC(CC(C3)N1CCc1cccc(F)c1)C2 (racemic)
Ki [1]: 234 nM | Ki [2]: 250 nM | Ratio Ki [3]: 1.1
